# Assay results: patent publication US9556165B2 (priority 2012, dated 2017)
# Read-outs that look alike come from different tables or passages of the source.
# Columns and labels:
# Type in all cases: cell-based
# E. coli J62-TEM-3 = assay: MIC determination, broth microdilution (CLSI); conditions: Escherichia coli, J62TEM3, read-out: MIC strain 18 (E. coli J62-TEM-3), strain 18; broth microdilution
# M. morganii 126/3048 = assay: MIC determination, broth microdilution (CLSI); conditions: Morganella morganii, 126/3048, strain 5
# H. influenzae ATCC 49247 = assay: MIC determination, broth microdilution (CLSI); conditions: Haemophilus influenzae, ATCC49247, strain 12; broth microdilution; read-out: MIC strain 12 (H. influenzae ATCC 49247)
# A. baumannii ATCC15308 = assay: MIC determination, broth microdilution (CLSI); conditions: Acinetobacter baumannii, ATCC15308, strain 9
# C. freundii K21/3034 = assay: MIC determination, broth microdilution (CLSI); conditions: Citrobacter freundii, K21/3034, strain 4
# S. pneumoniae 113 = assay: MIC determination, broth microdilution (CLSI); conditions: Streptococcus pneumoniae, 113, strain 13; broth microdilution; read-out: MIC strain 13 (S. pneumoniae 113)
# S. maltophilia ICB7569 = assay: MIC determination, broth microdilution (CLSI); conditions: Stenotrophomonas maltophilia, ICB7569, strain 10
# E. coli J62 = assay: MIC determination, broth microdilution (CLSI); conditions: Escherichia coli, J62, strain 17; broth microdilution; read-out: MIC strain 17 (E. coli J62)
# C. perfringens DSM756 = assay: microbe, parasite or virus in culture; conditions: Clostridium perfringens, DSM756, read-out: MIC strain 16 (C. perfringens DSM756), strain 16; broth microdilution
# B. fragilis 6688 = assay: MIC determination, broth microdilution (CLSI); conditions: Bacteroides fragilis, 6688, strain 15; broth microdilution; read-out: MIC strain 15 (B. fragilis 6688)
# Bacteria = assay: MIC determination in combination with β-lactamase inhibitors (constant 4 μg/mL)
# S. aureus 133 = assay: MIC determination, broth microdilution (CLSI)
# P. aeruginosa PAO1 = assay: MIC determination, broth microdilution (CLSI); conditions: Pseudomonas aeruginosa, PAO1, strain 6
# [1] = system: P. aeruginosa 2297 (AmpC wt); assay: MIC determination, broth microdilution (CLSI); conditions: Pseudomonas aeruginosa, strain 7
# E. coli ATCC25922 = assay: MIC determination, broth microdilution (CLSI); conditions: Escherichia coli, ATCC25922, strain 1
# K. pneumoniae 60 = assay: MIC determination, broth microdilution (CLSI); conditions: Klebsiella pneumoniae, 60, strain 2
# [2] = system: P. aeruginosa 2297-con (AmpC derepressed); assay: MIC determination, broth microdilution (CLSI); conditions: Pseudomonas aeruginosa, read-out: strain 8 MIC, strain 8
# E. cloacae 34654 = assay: MIC determination, broth microdilution (CLSI); conditions: Enterobacter cloacae, 34654, strain 3
# [3] = Staphylococcus aureus, 133, strain 11, read-out: strain 11 MIC
# [4] = Staphylococcus aureus, 133, strain 14, broth microdilution, read-out: MIC strain 14 (S. aureus 133)
Structure (SMILES),MIC (E. coli J62-TEM-3) [µg/mL],MIC (M. morganii 126/3048) [µg/mL],MIC (H. influenzae ATCC 49247) [µg/mL],MIC (A. baumannii ATCC15308) [µg/mL],MIC (C. freundii K21/3034) [µg/mL],MIC (S. pneumoniae 113) [µg/mL],MIC (S. maltophilia ICB7569) [µg/mL],MIC (E. coli J62) [µg/mL],MIC (C. perfringens DSM756) [µg/mL],MIC (B. fragilis 6688) [µg/mL],MIC strain 19 (E. coli J62-TEM-3 + 4 μg/mL clavulanic acid) (Bacteria),MIC strain 20 (E. coli J62-TEM-3 + 4 μg/mL sulbactam) (Bacteria),MIC strain 21 (E. coli J62-TEM-3 + 4 μg/mL tazobactam) (Bacteria),MIC (S. aureus 133; [3]) [µg/mL],MIC (P. aeruginosa PAO1) [µg/mL],MIC [1] [µg/mL],MIC (E. coli ATCC25922) [µg/mL],MIC (K. pneumoniae 60) [µg/mL],MIC [2] [µg/mL],MIC (E. cloacae 34654) [µg/mL],other results
"CN(C)CCNC(=N)c1ccc(OCCO/N=C(\C(=O)N[C@@H]2C(=O)N(OS(=O)(=O)O)C2(C)C)c2csc(N)n2)cc1 [Example 40, (2Z)-2-(2-Amino-1,3-thiazol-4-yl)-2-{[2-(4-{N-[2-(dimethylamino)ethyl]carbamimidoyl}phenoxy)ethoxy]imino}-N-[(3S)-2,2-dimethyl-4-oxo-1-(sulfooxy)azetidin-3-yl]ethanamide]",8,0.5,≤ 0.063,2,0.125,≤ 0.063,16,0.25,2,4,0.125 µg/mL,0.25 µg/mL,0.25 µg/mL,≤ 0.063,4,8,0.125,0.25,4,0.5,–
"CC1(C)[C@H](NC(=O)/C(=N\OCCOc2ccc(C3=NCC(CN)N3)cc2)c2csc(N)n2)C(=O)N1OS(=O)(=O)O (stereo partly drawn) [Example 91, (2Z)-2-[(2-{4-[5-(Aminomethyl)-4,5-dihydro-1H-imidazol-2-yl]phenoxy}ethoxy)imino]-2-(2-amino-1,3-thiazol-4-yl)-N-[(3S)-2,2-dimethyl-4-oxo-1-(sulfooxy)azetidin-3-yl]ethanamide]",4,0.25,≤ 0.063,1,0.125,≤ 0.063,16,0.125,2,4,0.125 µg/mL,0.125 µg/mL,0.125 µg/mL,≤ 0.063,2,4,0.125,0.125,2,0.25,MIC (S. aureus 133; [4]): 2 µg/mL
"CC1(C)[C@H](NC(=O)/C(=N\OCCOc2ccc(C(=N)NCCCN)cc2)c2csc(N)n2)C(=O)N1OS(=O)(=O)O [Example 83, (2Z)-2-[(2-{4-[N-(3-Aminopropyl)carbamimidoyl]phenoxy}ethoxy)imino]-2-(2-amino-1,3-thiazol-4-yl)-N-[(3S)-2,2-dimethyl-4-oxo-1-(sulfooxy)azetidin-3-yl]ethanamide]",4,0.5,≤ 0.063,0.25,0.125,≤ 0.063,16,0.25,2,4,0.125 µg/mL,0.25 µg/mL,0.25 µg/mL,≤ 0.063,2,4,0.125,0.25,4,0.25,MIC (S. aureus 133; [4]): 2 µg/mL
"CC1(C)[C@H](NC(=O)/C(=N\O[C@@H](COc2ccc(C(=N)NC3CCCNC3)cc2)C(=O)O)c2csc(N)n2)C(=O)N1OS(=O)(=O)O (stereo partly drawn) [Example 97, (2S)-2-({[(1Z)-1-(2-Amino-1,3-thiazol-4-yl)-2-{[(3S)-2,2-dimethyl-4-oxo-1-(sulfooxy)azetidin-3-yl]amino}-2-oxoethylidene]amino}oxy)-3-{4-[N-(piperidin-3-yl)carbamimidoyl]phenoxy}propanoic acid]",4,≤ 0.063,≤ 0.063,1,≤ 0.063,0.5,4,0.125,0.5,4,≦0.063 mg/L,≦0.063 mg/L,≦0.063 mg/L,≤ 0.063,1,1,≤ 0.063,0.125,1,0.125,MIC (S. aureus 133; [4]): 32 µg/mL
"CC1(C)[C@H](NC(=O)/C(=N\O[C@@H](COc2ccc(C(=N)NCC3CCCN3)cc2)C(=O)O)c2csc(N)n2)C(=O)N1OS(=O)(=O)O (stereo partly drawn) [Example 98, (2S)-2-({[(1Z)-1-(2-Amino-1,3-thiazol-4-yl)-2-{[(3S)-2,2-dimethyl-4-oxo-1-(sulfooxy)-azetidin-3-yl]amino}-2-oxoethylidene]amino}oxy)-3-{4-[N-(pyrrolidin-2-ylmethyl)carbamimidoyl]phenoxy}propanoic acid]",8,≤ 0.063,≤ 0.063,1,0.125,0.5,4,0.125,2,8,0.125 µg/mL,0.125 µg/mL,0.125 µg/mL,≤ 0.063,1,2,0.125,0.125,2,0.125,MIC (S. aureus 133; [4]): 32 µg/mL
"CC(=N)N1CC[C@H](NC(=N)c2ccc(OCCO/N=C(\C(=O)N[C@@H]3C(=O)N(OS(=O)(=O)O)C3(C)C)c3csc(N)n3)cc2)C1 [Example 43, (2Z)-2-(2-Amino-1,3-thiazol-4-yl)-N-[(3S)-2,2-dimethyl-4-oxo-1-(sulfooxy)azetidin-3-yl]-2-{[2-(4-{N-[(3S)-1-ethanimidoylpyrrolidin-3-yl]carbamimidoyl}phenoxy)ethoxy]-imino}ethanamide]",8,1,0.125,0.5,0.25,≤ 0.063,32,0.5,2,8,0.25 µg/mL,0.5 µg/mL,0.5 µg/mL,–,8,8,0.5,0.5,8,1,MIC (S. aureus 133; [4]): 4 µg/mL
